Reference: the supplement of paper PMC10307832

Tests used:
Experiment in all cases: relative viability (nuclei count vs DMSO), 5 days (fraction); higher = more cells survive
Vemurafenib = compound: CCCS(=O)(=O)Nc1ccc(F)c(C(=O)c2c[nH]c3ncc(-c4ccc(Cl)cc4)cc23)c1F [Vemurafenib]
How it was run: (§1)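 Only plates meeting two conditions passed: control CV below 25% and at least one doubling. Lung cancer cell lines, kept overnight at 37 °C in 1536-well plates, were pinned with five library-drug doses (not always all listed) √10 apart on vehicle-anchored plates and grown 5 days without medium change. A one-step fix, permeabilisation and Hoechst stain preceded 4× imaging and MetaXpress nuclear counting. Viability equals treated-well nuclei divided by vehicle-well nuclei, as the median over plates.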

Alpelisib = compound: Cc1nc(NC(=O)N2CCC[C@H]2C(N)=O)sc1-c1ccnc(C(C)(C)C(F)(F)F)c1 [Alpelisib]
How it was run: as §1

OSI-027 = compound: COc1cccc2cc(-c3nc([C@H]4CC[C@H](C(=O)O)CC4)n4ncnc(N)c34)[nH]c12 [OSI-027]
How it was run: as §1

Vemurafenib + Bortezomib = compound: CCCS(=O)(=O)Nc1ccc(F)c(C(=O)c2c[nH]c3ncc(-c4ccc(Cl)cc4)cc23)c1F [Vemurafenib] + CC(C)C[C@H](NC(=O)[C@H](Cc1ccccc1)NC(=O)c1cnccn1)B(O)O [Bortezomib] (partner 0.002 µM)
How it was run: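 Lung cancer cell lines were seeded in 1536-well plates and dosed by pin tool the next day, with either a single drug or a fixed anchor-drug dose combined with five library-drug doses (not always all listed) spaced in √10 steps. Five days later, one step fixed the cells and stained their nuclei (final 0.05% Triton X-100, 1% formaldehyde, 1 ug/ml Hoechst), and nuclei were counted on 4× images. Relative viability is the nuclei count in treated wells divided by the count in vehicle wells, and each value is the median of duplicate plates.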

Row | Cell Line | relative viability (Vemurafenib; 0.03162 µM) | relative viability (Vemurafenib; 0.1 µM) | relative viability (Vemurafenib; 0.3162 µM) | relative viability (Vemurafenib; 1 µM) | relative viability (Alpelisib; 0.04 µM) | relative viability (Alpelisib; 0.1265 µM) | relative viability (Alpelisib; 0.4 µM) | relative viability (Alpelisib; 1.265 µM) | relative viability (Alpelisib; 2 µM, anchor plate) | relative viability (Alpelisib; 4 µM) | relative viability (OSI-027; 0.01 µM) | relative viability (OSI-027; 0.03162 µM) | relative viability (OSI-027; 0.1 µM) | relative viability (OSI-027; 0.3162 µM) | relative viability (OSI-027; 0.5 µM, anchor plate) | relative viability (OSI-027; 1 µM) | relative viability (Vemurafenib + Bortezomib; first compound 0.03162 µM) | relative viability (Vemurafenib + Bortezomib; first compound 0.1 µM) | relative viability (Vemurafenib + Bortezomib; first compound 0.3162 µM) | relative viability (Vemurafenib + Bortezomib; first compound 1 µM)
1 | HCC-44 | 0.899 | 0.955 | 0.758 | 1.07 | 0.98 | 0.914 | 1.02 | 0.846 | 0.811 | 0.861 | 0.975 | 0.963 | 0.928 | 0.871 | 0.634 | 0.739 | 0.861 | 0.993 | 0.824 | 0.861
2 | HCC-78 | 0.93 | 0.838 | 1.05 | 0.964 | 0.93 | 0.798 | 0.897 | 0.664 | 0.378 | 0.655 | 0.938 | 0.866 | 0.832 | 0.727 | 0.385 | 0.501 | 0.433 | 0.439 | 0.674 | 0.506
3 | HCC-366 | 1.01 | 0.969 |  | 1.09 | 0.935 | 1 | 1.09 | 0.947 | 0.443 | 0.627 | 1.05 | 0.962 | 1.08 | 1.05 | 0.911 | 0.803 | 1 | 1.05 |  | 1.06
4 | HCC-827 | 1.05 |  | 0.95 | 1.07 | 1.02 | 0.935 | 1.05 | 0.981 | 0.945 | 1 | 1.08 | 1.02 | 1.04 | 1.04 | 0.792 | 0.956 | 0.968 |  | 0.765 | 1.16
5 | HOP-62 | 0.961 | 1.05 | 0.858 | 0.875 | 1.04 | 1.06 | 1.1 | 0.863 | 0.974 | 0.955 | 1 | 1.07 | 1 | 0.957 | 0.831 | 0.75 | 0.814 | 0.868 | 0.648 | 1.07
6 | IA-LM | 0.837 | 0.888 | 0.86 | 0.851 | 0.979 | 0.854 | 1.02 | 0.753 | 0.799 | 0.717 | 0.888 | 0.779 | 0.671 | 0.293 |  | 0.151 | 0.802 | 0.764 | 0.822 | 0.598
7 | LC-2-ad | 0.923 | 0.892 | 0.738 | 0.956 | 0.966 | 0.905 | 1.09 | 0.685 | 0.868 | 0.672 | 1.07 | 1.01 | 0.946 | 1.02 | 0.875 | 0.779 | 0.918 | 0.956 | 0.829 | 0.976
8 | LK-2 | 0.944 | 0.937 | 1.05 | 0.66 | 0.885 | 0.868 | 0.685 | 0.563 | 1.1 | 0.599 | 1.02 | 0.914 | 0.703 | 0.515 | 0.221 | 0.191 |  |  |  | 
9 | NCI-H358 | 0.865 |  | 1.12 | 1.11 | 0.873 | 0.889 | 0.95 | 0.586 | 0.88 | 0.493 | 1 | 0.842 | 1.03 | 1.01 | 0.79 | 0.538 |  |  |  | 
10 | NCI-H522 | 0.913 | 0.959 | 0.852 | 0.867 | 0.939 | 0.903 | 0.923 | 0.807 |  | 0.736 | 1 | 1.03 | 0.819 | 0.767 | 0.745 | 0.77 |  |  |  | 
11 | NCI-H1395 | 0.755 | 0.951 |  | 0.949 | 0.97 | 0.758 | 1 | 0.73 | 1.14 | 0.785 | 0.914 | 0.898 | 0.814 | 0.795 | 0.69 | 0.7 |  |  |  | 
12 | NCI-H1623 | 0.977 |  | 1.23 | 0.99 | 0.853 | 0.893 | 1.07 | 0.629 |  | 0.631 | 1.1 | 0.912 | 1.02 | 0.77 | 0.433 | 0.427 |  |  |  | 
13 | NCI-H1648 | 0.819 | 0.717 | 1.4 | 0.833 | 0.712 | 0.986 | 0.778 | 0.576 |  | 0.257 | 0.868 | 0.602 | 0.683 | 0.724 | 0.266 | 0.532 |  |  |  | 
14 | NCI-H1793 | 0.836 |  | 0.775 | 0.867 | 0.851 | 0.89 | 0.919 | 0.731 | 0.792 | 0.626 | 0.902 | 0.976 | 0.781 | 0.579 | 0.284 | 0.295 |  |  |  | 
15 | NCI-H1944 | 0.939 | 0.772 | 0.895 | 0.933 | 0.94 | 1.13 | 0.915 | 0.79 | 0.842 | 0.447 | 0.916 | 0.915 | 0.808 | 0.743 | 0.457 | 0.567 |  |  |  | 
16 | NCI-H2170 | 0.92 | 0.674 | 0.936 | 0.964 | 0.946 | 0.868 | 1.07 | 0.769 | 0.825 | 0.621 | 0.941 | 0.881 | 0.959 | 0.797 | 0.716 | 0.654 |  |  |  | 
17 | NCI-H2342 | 0.938 | 0.94 | 0.86 | 0.992 | 0.927 | 1.05 | 0.926 | 0.79 |  | 0.675 | 0.975 | 0.949 | 0.966 | 0.843 | 0.622 | 0.649 |  |  |  | 
18 | SK-MES-1 | 0.969 | 0.727 | 0.932 | 0.973 | 0.975 | 0.998 | 1.09 | 0.894 | 0.896 | 0.757 | 1.04 | 0.967 | 0.922 | 0.78 | 0.605 | 0.35 |  |  |  | 
19 | SW 900 | 0.69 | 0.843 | 0.808 | 0.756 | 0.944 | 0.7 | 1 | 0.789 |  | 0.651 | 0.618 | 0.925 | 0.744 | 0.812 | 0.627 | 0.47 |  |  |  | 
